Source: patent US20260374773A1, “MULTI-CYCLIC IRAK AND FLT3 INHIBITING COMPOUNDS AND USES THEREOF” (CHILDREN'S HOSPITAL MEDICAL CENTER, priority 2022, published 2026)
Read-outs that look alike come from different tables or passages of the source.

System: NF-κB
Experiment: NF-κB SEAP reporter assay in THP-1-Blue NF-κB cells, hIL1B stimulated
Type: cell-based
Details: THP-1-Blue cells, 1 ng/ml hIL1B, 24 h, read-out: NF-κB IL1B IC50
Procedure: (§1) THP-1-Blue NF-κB cells (InvivoGen) carrying a stable integrated NF-κB-inducible secreted embryonic alkaline phosphatase (SEAP) reporter construct were plated at a concentration of 1×10^5 cells per well. The cells were stimulated with Pam3CSK4 (1 ng/ml) or hIL1B (1 ng/ml). After 10-20 minutes, the cells were then treated with vehicle (DMSO) or serial dilutions of the test compounds (10 doses tested for each test compound, with a […] starting at 1 μM or 3 μM) with a final volume of 200 μL for 24 hours at 37 °C. After 24 hours, the cells were centrifuged and 20 μL supernatant was incubated with 180 μL QUANTI-Blue reagent at 37 °C for 30-60 minutes. The levels of NF-κB-induced was measured in a microplate reader at 620 nm.
as §1, with “1 mM” for “1 μM”, “3 mM)” for “3 μM)”, “200 mL” for “200 μL”, “20 mL” for “20 μL”, “180 mL” for “180 μL”, “NF-κB-induced gene expression were” for “NF-κB-induced was”

Structure (SMILES)	IC50 (Table 21) [nM]	IC50 (Table 15) [nM]
COc1cn2ncc(-c3nc(N[C@H]4CNCC[C@@H]4F)ncc3F)c2nc1C(C)(C)O [Compound 6a, 2-(3-(5-fluoro-2-(((3S,4S)-4-fluoropiperidin-3-yl)amino)pyrimidin-4-yl)-6-methoxypyrazolo[1,5-a]pyrimidin-5-yl)propan-2-ol]	52	
COc1cn2ncc(-c3nc(N[C@H]4CNC[C@@H]4F)ncc3F)c2nc1C1CC1 [Compound 13a, 4-(5-cyclopropyl-6-methoxypyrazolo[1,5-a]pyrimidin-3-yl)-5-fluoro-N-((3S,4S)-4-fluoropyrrolidin-3-yl)pyrimidin-2-amine]	27	
COc1cn2ncc(-c3nc(N[C@@H]4CCCNC4)c(C#N)cc3F)c2nc1C(C)(C)O [Compound 9, (R)-5-fluoro-6-(5-(2-hydroxypropan-2-yl)-6-methoxypyrazolo[1,5-a]pyrimidin-3-yl)-2-(piperidin-3-ylamino)nicotinonitrile]		88
COc1cn2ncc(-c3nc(N[C@@H]4CCCNC4)ncc3F)c2nc1C1CC1 [Compound 14a, (R)-4-(5-cyclopropyl-6-methoxypyrazolo[1,5-a]pyrimidin-3-yl)-5-fluoro-N-(piperidin-3-yl)pyrimidin-2-amine]	22	
COc1cn2ncc(-c3ccnc(N[C@H]4CNCC[C@@H]4F)n3)c2nc1C1CC1 [Compound 7a, 4-(5-cyclopropyl-6-methoxypyrazolo[1,5-a]pyrimidin-3-yl)-N-((3S,4S)-4-fluoropiperidin-3-yl)pyrimidin-2-amine]	50	
COc1cn2ncc(-c3ccc(F)c(N[C@H]4CNCC[C@@H]4F)n3)c2nc1C1CC1 [Compound 6, 6-(5-cyclopropyl-6-methoxypyrazolo[1,5-a]pyrimidin-3-yl)-3-fluoro-N-((3S,4S)-4-fluoropiperidin-3-yl)pyridin-2-amine]		219
COc1cn2ncc(-c3nc(N[C@H]4CNCC[C@@H]4F)ccc3F)c2nc1C1CC1 [Compound 3, 6-(5-cyclopropyl-6-methoxypyrazolo[1,5-a]pyrimidin-3-yl)-5-fluoro-N-((3S,4S)-4-fluoropiperidin-3-yl)pyridin-2-amine]		26
COc1cn2ncc(-c3cccc(N[C@H]4CNC[C@@H]4F)n3)c2nc1C1CC1 [Compound 19, 6-(5-cyclopropyl-6-methoxypyrazolo[1,5-a]pyrimidin-3-yl)-N-((3S,4S)-4-fluoropyrrolidin-3-yl)pyridin-2-amine]		97
COc1cn2ncc(-c3nc(N[C@H]4CNCC[C@@H]4F)c(F)cc3F)c2nc1C1CC1 [Compound 22, 6-(5-cyclopropyl-6-methoxypyrazolo[1,5-a]pyrimidin-3-yl)-3,5-difluoro-N-((3S,4S)-4-fluoropiperidin-3-yl)pyridin-2-amine]		19
COc1cn2ncc(-c3ccnc(N[C@H]4CNC[C@@H]4F)n3)c2nc1C1CC1 [Compound 8a, 4-(5-cyclopropyl-6-methoxypyrazolo[1,5-a]pyrimidin-3-yl)-N-((3S,4S)-4-fluoropyrrolidin-3-yl)pyrimidin-2-amine]	46	
COc1cn2ncc(-c3cccc(N[C@@H]4CCCNC4)n3)c2nc1C1CC1 [Compound 20, (R)-6-(5-cyclopropyl-6-methoxypyrazolo[1,5-a]pyrimidin-3-yl)-N-(piperidin-3-yl)pyridin-2-amine]		646
COc1cn2ncc(-c3nc(N[C@H]4CNCC[C@@H]4F)c(C#N)cc3F)c2nc1C(C)(C)O [Compound 10, 5-fluoro-2-(((3S,4S)-4-fluoropiperidin-3-yl)amino)-6-(5-(2-hydroxypropan-2-yl)-6-methoxypyrazolo[1,5-a]pyrimidin-3-yl)nicotinonitrile]		41
COc1cn2ncc(-c3cncc(N[C@H]4CNCC[C@@H]4F)n3)c2nc1C1CC1 [Compound 12a, 6-(5-cyclopropyl-6-methoxypyrazolo[1,5-a]pyrimidin-3-yl)-N-((3S,4S)-4-fluoropiperidin-3-yl)pyrazin-2-amine]	55	
COc1cn2ncc(-c3nc(N[C@H]4CNCC[C@@H]4F)c(F)cc3F)c2nc1C(C)(C)O [Compound 13, 2-(3-(3,5-difluoro-6-(((3S,4S)-4-fluoropiperidin-3-yl)amino)pyridin-2-yl)-6-methoxypyrazolo[1,5-a]pyrimidin-5-yl)propan-2-ol]		73
COc1cn2ncc(-c3nc(N[C@@H]4CCCNC4)ccc3F)c2nc1C1CC1 [Compound 2, (R)-6-(5-cyclopropyl-6-methoxypyrazolo[1,5-a]pyrimidin-3-yl)-5-fluoro-N-(piperidin-3-yl)pyridin-2-amine]		94
COc1cn2ncc(-c3nc(N[C@H]4CNCC[C@@H]4F)ncc3F)c2nc1C1CC1 [Compound 15a, 4-(5-cyclopropyl-6-methoxypyrazolo[1,5-a]pyrimidin-3-yl)-5-fluoro-N-((3S,4S)-4-fluoropiperidin-3-yl)pyrimidin-2-amine]	8	
COc1cn2ncc(-c3cccc(N[C@H]4CNCC[C@@H]4F)n3)c2nc1C1CC1 [Compound 21, 6-(5-cyclopropyl-6-methoxypyrazolo[1,5-a]pyrimidin-3-yl)-N-((3S,4S)-4-fluoropiperidin-3-yl)pyridin-2-amine]		342
COc1cn2ncc(-c3cncc(N[C@@H]4CCCNC4)n3)c2nc1C1CC1 [Compound 11a, (R)-6-(5-cyclopropyl-6-methoxypyrazolo[1,5-a]pyrimidin-3-yl)-N-(piperidin-3-yl)pyrazin-2-amine]	244	
COc1cn2ncc(-c3nc(N[C@@H]4CCCNC4)c(F)cc3F)c2nc1C(C)(C)O [Compound 11, (R)-2-(3-(3,5-difluoro-6-(piperidin-3-ylamino)pyridin-2-yl)-6-methoxypyrazolo[1,5-a]pyrimidin-5-yl)propan-2-ol]		101
COc1cn2ncc(-c3nc(N[C@H]4CNC[C@@H]4F)c(F)cc3F)c2nc1C(C)(C)O [Compound 12, 2-(3-(3,5-difluoro-6-(((3S,4S)-4-fluoropyrrolidin-3-yl)amino)pyridin-2-yl)-6-methoxypyrazolo[1,5-a]pyrimidin-5-yl)propan-2-ol]		41
